In PMC12381718 (2025):

How the values were obtained:
[1] = tested on: ds26 (DNA, duplex) CAATCGGATCGAATTCGATCCGATTG; assay: CD titration; settings: K+ (100 mM potassium phosphate); 100 mM KPhos pH 7.4, 20 °C; 5 µM DNA; weak Ka seen by UV-visible
[2] = tested on: ds26 (DNA, duplex) CAATCGGATCGAATTCGATCCGATTG; assay: UV-visible titration; settings: K+ (100 mM potassium phosphate), 100 mM KPhos pH 7.4, ambient temperature, 10 µM ligand, apparent

Row | binding [1] | Ka ([2]; continuous 405 nm irradiation) | Ka [2] | Structure (SMILES)
1 | no | 2.44 × 10^3 M^–1 | – | C[n+]1ccc(-c2ccc3c(c2)CCc2cc(-c4cc[n+](C)cc4)ccc2/N=N/3)cc1
2 | – | – | 2.53 × 10^3 M^–1 | C[n+]1ccc(-c2ccc3c(c2)CCc2cc(-c4cc[n+](C)cc4)ccc2/N=N\3)cc1
